Test in all cases: KINOMEscan kinase binding assay (Eurofins/DiscoveRx), % Ctrl
Holding throughout (settings): 1 μM

Test [1] deals with T1, kinases (Homo sapiens, UniProt P00519, Q252H).
T1 construct: purchased Eurofins/DiscoveRx; host or cells: E. coli BL21-derived host (T7 phage display) for most kinases; HEK-293 for the rest
The method in brief: (§1)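 Competition binding, 1 h RT: phage-tagged or HEK-293-expressed DNA-tagged kinase + immobilized ligand + compound. Eluate kinase by qPCR. % Ctrl = (test − positive ctrl)/(negative ctrl − positive ctrl) × 100; lower means stronger binding.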

In test [2] the target is T2, kinases (Homo sapiens, UniProt P17948).
T2 construct: purchased Eurofins/DiscoveRx; host or cells: E. coli BL21-derived host (T7 phage display) for most kinases; HEK-293 for the rest
Put shortly: as §1

The target in test [3] is T3, kinases (Homo sapiens, UniProt P35916).
T3 construct: purchased Eurofins/DiscoveRx; host or cells: E. coli BL21-derived host (T7 phage display) for most kinases; HEK-293 for the rest
The method in brief:
as §1

Test [4] deals with kinases. The method in brief:
as §1

In test [5] the target is T4, kinases (Homo sapiens, UniProt P00533, L858R).
T4 construct: purchased Eurofins/DiscoveRx; host or cells: E. coli BL21-derived host (T7 phage display) for most kinases; HEK-293 for the rest
The method in brief: as §1

Test [6] deals with T5, kinases (Homo sapiens, UniProt P00533, DEL746-750).
T5 construct: purchased Eurofins/DiscoveRx; host or cells: E. coli BL21-derived host (T7 phage display) for most kinases; HEK-293 for the rest
The method in brief: as §1

Test [7] deals with T6, kinases (Homo sapiens, UniProt P00533, G719S).
T6 construct: purchased Eurofins/DiscoveRx; host or cells: E. coli BL21-derived host (T7 phage display) for most kinases; HEK-293 for the rest
The method in brief:
as §1

T2 sequence (P17948 27-1338): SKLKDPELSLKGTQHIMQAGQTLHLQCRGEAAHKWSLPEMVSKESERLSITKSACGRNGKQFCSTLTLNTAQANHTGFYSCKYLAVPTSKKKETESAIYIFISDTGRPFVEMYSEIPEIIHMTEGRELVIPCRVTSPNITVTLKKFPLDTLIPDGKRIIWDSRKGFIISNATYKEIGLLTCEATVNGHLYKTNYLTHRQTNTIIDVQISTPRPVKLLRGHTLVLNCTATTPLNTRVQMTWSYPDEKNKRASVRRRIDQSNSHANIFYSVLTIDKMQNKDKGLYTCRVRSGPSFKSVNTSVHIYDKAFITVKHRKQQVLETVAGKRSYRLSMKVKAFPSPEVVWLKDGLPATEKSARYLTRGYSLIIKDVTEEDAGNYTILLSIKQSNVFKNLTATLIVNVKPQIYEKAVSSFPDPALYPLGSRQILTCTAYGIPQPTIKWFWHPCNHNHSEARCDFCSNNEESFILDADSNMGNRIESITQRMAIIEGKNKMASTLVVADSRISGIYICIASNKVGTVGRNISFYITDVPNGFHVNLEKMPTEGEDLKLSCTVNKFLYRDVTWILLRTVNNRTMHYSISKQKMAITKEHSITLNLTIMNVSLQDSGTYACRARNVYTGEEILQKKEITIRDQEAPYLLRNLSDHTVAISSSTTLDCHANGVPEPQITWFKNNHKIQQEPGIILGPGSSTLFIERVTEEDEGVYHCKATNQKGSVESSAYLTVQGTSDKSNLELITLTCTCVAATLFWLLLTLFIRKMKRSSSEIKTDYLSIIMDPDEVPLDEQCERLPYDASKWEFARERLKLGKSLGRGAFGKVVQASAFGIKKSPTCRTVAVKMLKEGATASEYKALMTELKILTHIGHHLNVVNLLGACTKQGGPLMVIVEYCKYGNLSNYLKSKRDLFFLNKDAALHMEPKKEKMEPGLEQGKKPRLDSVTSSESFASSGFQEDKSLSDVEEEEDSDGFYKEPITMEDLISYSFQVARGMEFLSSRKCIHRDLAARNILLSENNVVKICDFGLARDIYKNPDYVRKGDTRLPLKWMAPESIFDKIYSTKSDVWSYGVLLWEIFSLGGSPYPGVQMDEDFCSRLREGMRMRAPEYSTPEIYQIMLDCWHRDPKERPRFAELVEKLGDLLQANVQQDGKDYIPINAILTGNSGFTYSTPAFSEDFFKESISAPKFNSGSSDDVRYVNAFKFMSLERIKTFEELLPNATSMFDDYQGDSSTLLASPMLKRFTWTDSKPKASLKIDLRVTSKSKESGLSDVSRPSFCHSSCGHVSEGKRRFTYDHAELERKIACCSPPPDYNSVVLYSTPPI
T3 sequence (P35916 25-1363): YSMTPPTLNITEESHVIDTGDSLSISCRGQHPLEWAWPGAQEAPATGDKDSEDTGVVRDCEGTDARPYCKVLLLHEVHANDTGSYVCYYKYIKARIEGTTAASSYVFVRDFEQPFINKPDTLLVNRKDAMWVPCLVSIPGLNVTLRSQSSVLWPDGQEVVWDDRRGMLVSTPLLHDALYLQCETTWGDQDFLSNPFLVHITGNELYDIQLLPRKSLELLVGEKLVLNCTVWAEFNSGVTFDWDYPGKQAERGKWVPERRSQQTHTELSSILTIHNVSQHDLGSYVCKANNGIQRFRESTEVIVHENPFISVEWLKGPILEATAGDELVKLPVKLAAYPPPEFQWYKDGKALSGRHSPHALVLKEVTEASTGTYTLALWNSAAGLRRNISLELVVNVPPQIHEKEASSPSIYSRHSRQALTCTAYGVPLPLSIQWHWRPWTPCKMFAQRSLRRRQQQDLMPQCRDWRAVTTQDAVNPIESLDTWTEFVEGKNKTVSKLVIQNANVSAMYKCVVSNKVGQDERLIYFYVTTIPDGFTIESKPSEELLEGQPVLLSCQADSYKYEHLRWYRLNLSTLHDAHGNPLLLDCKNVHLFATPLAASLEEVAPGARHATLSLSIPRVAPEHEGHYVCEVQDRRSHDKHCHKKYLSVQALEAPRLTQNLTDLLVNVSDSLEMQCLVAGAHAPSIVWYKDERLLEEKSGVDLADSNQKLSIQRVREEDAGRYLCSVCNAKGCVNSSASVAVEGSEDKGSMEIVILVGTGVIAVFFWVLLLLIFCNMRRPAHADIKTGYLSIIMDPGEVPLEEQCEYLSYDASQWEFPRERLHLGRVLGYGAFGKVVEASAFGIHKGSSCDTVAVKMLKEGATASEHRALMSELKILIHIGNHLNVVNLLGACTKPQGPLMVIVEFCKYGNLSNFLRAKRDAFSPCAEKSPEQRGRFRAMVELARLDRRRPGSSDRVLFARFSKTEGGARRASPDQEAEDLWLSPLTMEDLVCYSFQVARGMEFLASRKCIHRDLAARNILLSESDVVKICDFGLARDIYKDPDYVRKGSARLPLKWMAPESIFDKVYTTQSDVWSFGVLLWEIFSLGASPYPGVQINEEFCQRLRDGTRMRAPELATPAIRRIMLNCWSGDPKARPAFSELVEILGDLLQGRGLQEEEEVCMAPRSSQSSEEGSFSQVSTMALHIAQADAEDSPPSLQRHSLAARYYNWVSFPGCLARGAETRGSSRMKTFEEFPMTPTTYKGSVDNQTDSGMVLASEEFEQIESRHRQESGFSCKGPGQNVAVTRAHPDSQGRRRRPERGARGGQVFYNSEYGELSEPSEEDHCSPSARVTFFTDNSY

For the compound `Cc1cc2c([nH]1)/C=C1\C(=O)Nc3cc(Cl)c(cc31)OCCO[C@@H](C(=O)NC1CNC1)CN(C)C2=O` [Ex. 133, [7R,16a(17)Z]-N-(azetidin-3-yl)-19-chloro-2,5-dimethyl-4,16-dioxo-4,5,6,7,9,10,15,16-octahydro-1H-12,14-(ethanediylidene)dipyrrolo[3,2-i:3′,4′-l][1,4,7]dioxazacyclopentadecine-7-carboxamide], on kinases [1] (ABL1(Q252H)-nonphosphorylated), the “% Ctrl, ABL1(Q252H)-nonphosphorylated” value is 61 % Ctrl. The “% Ctrl, ABL1(Q252H)-phosphorylated” value on kinases [1] (ABL1(Q252H)-phosphorylated) is listed as 49 % Ctrl. Besides, the “% Ctrl, FLT1” value at kinases [2] (FLT1) stood at 89 % Ctrl. The “% Ctrl, FLT4” value on kinases [3] (FLT4) stood at 98 % Ctrl. The “% Ctrl, EGFR(L747-E749del, A750P)” value with kinases [4] (EGFR(L747-E749del, A750P)) is listed as 100 % Ctrl. Moreover, in the test with kinases [4] (EGFR(L747-S752del, P753S)), the “% Ctrl, EGFR(L747-S752del, P753S)” value amounted to 100 % Ctrl. Further, in the test on kinases [4] (EGFR(L747-T751del, Sins)), the “% Ctrl, EGFR(L747-T751del, Sins)” value came out at 100 % Ctrl. The “% Ctrl, FLT3(ITD)” value with kinases [4] (FLT3(ITD)) worked out at 26 % Ctrl. Further, in the test with kinases [4] (FLT3(ITD, D835V)), the “% Ctrl, FLT3(ITD, D835V)” value stood at 2.8 % Ctrl. Moreover, the “% Ctrl, FLT3(ITD, F691L)” value in the test with kinases [4] (FLT3(ITD, F691L)) turned out to be 5.6 % Ctrl. Also, the “% Ctrl, EGFR(L858R)” value at kinases [5] (EGFR(L858R)) worked out at 95 % Ctrl. In addition, the “% Ctrl, EGFR(E746-A750del)” value at kinases [6] (EGFR(E746-A750del)) is 100 % Ctrl. The “% Ctrl, EGFR(G719S)” value on kinases [7] (EGFR(G719S)) was found to be 99 % Ctrl.
On to `CN1CCOCCOc2cc3c(cc2Cl)NC(=O)/C3=C\c2[nH]ccc2C1=O` [Ex. 143, [16a(17)Z]-19-chloro-2,5-dimethyl-6,7,9,10-tetrahydro-1H-12,14-(ethanediylidene)dipyrrolo[3,2-i:3′,4′-l][1,4,7]oxathiazacyclopentadecine-4,16(5H,15H)-dione], for which, on kinases [1] (target ABL1(Q252H)-nonphosphorylated), the “% Ctrl, ABL1(Q252H)-nonphosphorylated” value turned out to be 4.1 % Ctrl. The “% Ctrl, ABL1(Q252H)-phosphorylated” value on kinases [1] (target ABL1(Q252H)-phosphorylated) worked out at 5.2 % Ctrl. The “% Ctrl, FLT1” value at kinases [2] (target FLT1) is on record as 11 % Ctrl. In addition, on kinases [3] (target FLT4), the “% Ctrl, FLT4” value worked out at 39 % Ctrl. The “% Ctrl, EGFR(L747-E749del, A750P)” value in the test with kinases [4] (target EGFR(L747-E749del, A750P)) came to 90 % Ctrl. Besides, in the test with kinases [4] (target EGFR(L747-S752del, P753S)), the “% Ctrl, EGFR(L747-S752del, P753S)” value is given as 89 % Ctrl. For the same compound, the “% Ctrl, EGFR(L747-T751del, Sins)” value with kinases [4] (target EGFR(L747-T751del, Sins)) stood at 96 % Ctrl. The “% Ctrl, FLT3(ITD)” value with kinases [4] (target FLT3(ITD)) was 2.5 % Ctrl. In the test with kinases [4] (target FLT3(ITD, D835V)), the “% Ctrl, FLT3(ITD, D835V)” value worked out at 0.6 % Ctrl. In the test with kinases [4] (target FLT3(ITD, F691L)), the “% Ctrl, FLT3(ITD, F691L)” value is 1 % Ctrl. Also, the “% Ctrl, EGFR(L858R)” value on kinases [5] (target EGFR(L858R)) is listed as 86 % Ctrl. Further, the “% Ctrl, EGFR(E746-A750del)” value at kinases [6] (target EGFR(E746-A750del)) is on record as 65 % Ctrl. Besides, at kinases [7] (target EGFR(G719S)), the “% Ctrl, EGFR(G719S)” value is on record as 94 % Ctrl.
With `Cc1cc2c([nH]1)/C=C1\C(=O)Nc3ccc(cc31)OCCOCCN(C)C2=O` [Ex.91, [16a(17)Z]-2,5-dimethyl-6,7,9,10-tetrahydro-1H-12,14-(ethanediylidene)dipyrrolo[3,2-i:3′,4′-l][1,4,7]dioxazacyclopentadecine-4,16(5H,15H)-dione], the “% Ctrl, ABL1(Q252H)-nonphosphorylated” value on kinases [1] (ABL1(Q252H)-nonphosphorylated) is on record as 2.8 % Ctrl. In addition, at kinases [1] (ABL1(Q252H)-phosphorylated), the “% Ctrl, ABL1(Q252H)-phosphorylated” value stood at 11 % Ctrl. Besides, the “% Ctrl, FLT1” value on kinases [2] (FLT1) was 83 % Ctrl. Besides, the “% Ctrl, FLT4” value at kinases [3] (FLT4) was determined as 9.9 % Ctrl. Besides, in the test with kinases [4] (EGFR(L747-E749del, A750P)), the “% Ctrl, EGFR(L747-E749del, A750P)” value turned out to be 100 % Ctrl. Also, the “% Ctrl, EGFR(L747-S752del, P753S)” value with kinases [4] (EGFR(L747-S752del, P753S)) is 94 % Ctrl. Moreover, the “% Ctrl, EGFR(L747-T751del, Sins)” value in the test on kinases [4] (EGFR(L747-T751del, Sins)) worked out at 68 % Ctrl. In the test with kinases [4] (FLT3(ITD)), the “% Ctrl, FLT3(ITD)” value was 2.1 % Ctrl. For the same compound, in the test on kinases [4] (FLT3(ITD, D835V)), the “% Ctrl, FLT3(ITD, D835V)” value turned out to be 0 % Ctrl. The “% Ctrl, FLT3(ITD, F691L)” value in the test with kinases [4] (FLT3(ITD, F691L)) is recorded as 0 % Ctrl. The “% Ctrl, EGFR(L858R)” value on kinases [5] (EGFR(L858R)) is given as 100 % Ctrl. Besides, at kinases [6] (EGFR(E746-A750del)), the “% Ctrl, EGFR(E746-A750del)” value was found to be 93 % Ctrl. The “% Ctrl, EGFR(G719S)” value on kinases [7] (EGFR(G719S)) amounted to 87 % Ctrl.
Consider `Cc1cc2c([nH]1)/C=C1\C(=O)Nc3cc(Cl)c(cc31)OCCOCCN(C)C2=O` [Ex. 131, [16a(17)Z]-19-chloro-2,5-dimethyl-6,7,9,10-tetrahydro-1H-12,14-(ethanediylidene)dipyrrolo[3,2-i:3′,4′-l][1,4,7]dioxazacyclopentadecine-4,16(5H,15H)-dione], for which, at kinases [1] (ABL1(Q252H)-nonphosphorylated), the “% Ctrl, ABL1(Q252H)-nonphosphorylated” value was found to be 0 % Ctrl. At kinases [1] (ABL1(Q252H)-phosphorylated), the “% Ctrl, ABL1(Q252H)-phosphorylated” value is listed as 0.2 % Ctrl. Further, the “% Ctrl, FLT1” value on kinases [2] (FLT1) is reported as 4 % Ctrl. Also, the “% Ctrl, FLT4” value on kinases [3] (FLT4) amounted to 0 % Ctrl. In addition, in the test with kinases [4] (EGFR(L747-E749del, A750P)), the “% Ctrl, EGFR(L747-E749del, A750P)” value is reported as 31 % Ctrl. Also, the “% Ctrl, EGFR(L747-S752del, P753S)” value in the test with kinases [4] (EGFR(L747-S752del, P753S)) amounted to 50 % Ctrl. Further, the “% Ctrl, EGFR(L747-T751del, Sins)” value with kinases [4] (EGFR(L747-T751del, Sins)) worked out at 59 % Ctrl. In addition, the “% Ctrl, FLT3(ITD)” value in the test on kinases [4] (FLT3(ITD)) is given as 0.85 % Ctrl. The “% Ctrl, FLT3(ITD, D835V)” value with kinases [4] (FLT3(ITD, D835V)) is listed as 0 % Ctrl. Moreover, the “% Ctrl, FLT3(ITD, F691L)” value in the test on kinases [4] (FLT3(ITD, F691L)) stood at 0.6 % Ctrl. Moreover, at kinases [5] (EGFR(L858R)), the “% Ctrl, EGFR(L858R)” value was 56 % Ctrl. On kinases [6] (EGFR(E746-A750del)), the “% Ctrl, EGFR(E746-A750del)” value is given as 11 % Ctrl. Also, at kinases [7] (EGFR(G719S)), the “% Ctrl, EGFR(G719S)” value worked out at 80 % Ctrl.

The values are drawn from US20230257396A1, “MACROCYCLES AND THEIR USE” (BLOSSOMHILL THERAPEUTICS, INC., priority 2020, published 2023).
